Experiments:
[1] = test system: antibody forming capacities; test: Antibody forming capacity (PFC-SRBC) in mice immunosuppressed with cyclophosphamide; type: in vivo
Method: Female BDF1 (8 weeks in age) mice were injected intraperitoneally with cyclophosphamide (22.5 mg/kg) 4 days before immunization with 5 x 10^8 SRBC. Samples were administered to mice i.p. from four days before immunization, every day for five days.
Mouse splenic lymphocytes producing antibody against SRBC were quantitated by using Cunningham modification method described previously.

[2] = test system: antibody forming capacities; test: Antibody forming capacity (PFC-SRBC) in Sarcoma 180 tumor bearing mice; type: in vivo
Method: Female ICR(8 weeks in age) mice were intraperitoneally inoculated with 0.2 ml of Sarcoma 180 suspension (5 x 10^6 cells/ml)at day 0. Samples were administered to mice intraperitoneally from 7 days before immunization with 5 x 10^8 SRBC, every day for five days.
The number of direct plaque forming cells per spleen was measured five days after immunization.

[3] = test system: antibody forming capacities against SRBC; test: Antibody forming capacity (direct plaque-forming cells against SRBC) in mice injected with immunosuppressive factor; type: in vivo
Method: Splenic lymphocytes producing antibody against sheep blood red cells (SRBC) were quantitated using Cunningham modification (Cunningham, A.J., Nature, 207, 1106-1107, 1965) of the Jerne plaque assay.
[…] Samples were administered to mice intraperitoneally four times before immunization. Mice were sacrificed 4 days after the injection of SRBC, and the number of direct plaque-forming cells per spleen was determined.

[4] = test system: mixed lymphocyte culture (MLC)-stimulated spleen cells; test: Mixed lymphocyte culture (MLC), 3H-thymidine uptake; type: cell-based, mice
Method: Female C57BL/6 mice, 8 weeks in age, and female BALB/c mice, 8 weeks in age were sacrificed, spleens were aseptically removed and single cell suspensions were prepared as sources of stimulating and responding cells, respectively. Prior to culture, the stimulator cells were treated with 200 µg/ml of mitomycin C for 45 minutes at 37°C, followed by three washes with PBS.
They were established at a final concentration of 0.2 x 10^6 cells/0.2 ml of reaction mixture and cultured in microtiteration plate (Falcon, No.3040) using RPMI medium supplemented with 10% fetal bovine serum and 5 x 10^-5M 2- mercaptoethanol. The culture was continued for 120 hours and pulse-labeled with ^3H-thymidine for 24 hours before the termination of incubation. The cells were collected and radioactivity was counted.

[5] = test system: antibody forming capacities; test: Antibody forming capacity (PFC-SRBC) in mice immunosuppressed with mitomycin C; type: in vivo
Method: Female BDF1 (8 weeks in age) mice were injected intraperitoneally with mitomycin C (1 mg/kg) from four days before immuization with 5 x 10^8 SRBC, every day for three days. Samples also were administered to mice intraperitoneally from four days before immunization, every day for five days.
At day 9, mice were sacrificed and the number of direct plaque forming cells per spleen was measured by using Cunningham modification method.

thymus = test: Dexamethasone-induced thymus atrophy in mice; type: in vivo; settings: for Thymus weight: Dexamethasone treatment Yes, n=5
Method: Five week-old ddY mice(male) were used. Samples were given subcutaneously twice per day from day 0 to day 2 of the experiment. Five hours after first medication on day 0, mice were supplied with drinking water containing 1 ug/ml of dexamethasone.
At day 2, the weight of thymus of the treated mice was compared with that of the nontreated controls.

[6] = test system: Sarcoma-180 (S-180) cells; test: Murine transplantable tumor, total tumor cell packed volume in ascites; type: in vivo; settings: mice
Method: Sarcoma-180 (S-180) cells (1 x 10^6 cells) were inoculated to ICR (female, 8 weeks old) mice intraperitoneally and then after, swainsonine was administered intraperitoneally daily for 5 days. The total tumor cell packed volume in ascites was measured 15 days after tumor cell inoculation.

[7] = BDF1 mice, Swainsonine 100 mg/kg i.p. alone

O[C@H]1[C@H]2[C@H](O)CCCN2C[C@H]1O [Swainsonine]
PFC-SRBC/spleen (average number of 5 mice/group) [1, 7]: 16.54 x 10^4 PFC-SRBC/spleen | PFC-SRBC/spleen (average number of 5 mice/group) ([1]; Cyclophosphamide (22.5 mg/kg) + Swainsonine 3 mg/kg i.p.): 21.53 x 10^4 PFC-SRBC/spleen | PFC-SRBC/spleen (average number of 5 mice/group) ([1]; Cyclophosphamide (22.5 mg/kg) + Swainsonine 11 mg/kg i.p.): 16.52 x 10^4 PFC-SRBC/spleen | PFC-SRBC/spleen (average number of 5 mice/group) ([1]; Cyclophosphamide (22.5 mg/kg) + Swainsonine 33 mg/kg i.p.): 17.19 x 10^4 PFC-SRBC/spleen | PFC-SRBC/spleen (average number of 5 mice/group) ([1]; Cyclophosphamide (22.5 mg/kg) + Swainsonine 100 mg/kg i.p.): 16.48 x 10^4 PFC-SRBC/spleen | capacities to produce antibody against SRBC ([1]; mice injected cyclophosphamide): restored the capacities | PFC-SRBC/spleen (average number of 5 mice/group) ([2]; ICR mice without tumor, Swainsonine 100 mg/kg i.p.): 118.7 x 10^4 PFC-SRBC/spleen | PFC-SRBC/spleen (average number of 5 mice/group) ([2]; Tumor bearer (Sarcoma 180, ICR mice) + Swainsonine 100 mg/kg i.p., every day for five days): 126.7 x 10^4 PFC-SRBC/spleen | PFC-SRBC/spleen (average number of 5 mice/group) ([2]; Tumor bearer + Swainsonine 3.7 mg/kg i.p.): 61.6 x 10^4 PFC-SRBC/spleen | PFC-SRBC/spleen (average number of 5 mice/group) ([2]; Tumor bearer + Swainsonine 11 mg/kg i.p.): 71.6 x 10^4 PFC-SRBC/spleen | PFC-SRBC/spleen (average number of 5 mice/group) ([2]; Tumor bearer + Swainsonine 33 mg/kg i.p.): 123.5 x 10^4 PFC-SRBC/spleen | capacities to produce antibody against SRBC ([2]; tumor bearing mice): restored the capacities | PFC-SRBC/spleen (average number of 5 mice/group) ([3]; BDF1 mice, Swainsonine 100 mg/kg/day intraperitoneally, alone (normal mice)): 16.49 x 10^4 PFC-SRBC/spleen | PFC-SRBC/spleen (average number of 5 mice/group) ([3]; Immunosuppressive factor (0.3 ml/mouse/day) + Swainsonine 3.7 mg/kg i.p.): 20.77 x 10^4 PFC-SRBC/spleen | PFC-SRBC/spleen (average number of 5 mice/group) ([3]; Immunosuppressive factor (0.3 ml/mouse/day) + Swainsonine 11 mg/kg i.p.): 20.08 x 10^4 PFC-SRBC/spleen | PFC-SRBC/spleen (average number of 5 mice/group) ([3]; Immunosuppressive factor (0.3 ml/mouse/day) + Swainsonine 33 mg/kg i.p.): 20.84 x 10^4 PFC-SRBC/spleen | PFC-SRBC/spleen (average number of 5 mice/group) ([3]; Immunosuppressive factor (0.3 ml/mouse/day) + Swainsonine 100 mg/kg i.p.): 17.39 x 10^4 PFC-SRBC/spleen | capacities to produce antibody against SRBC ([3]; mice injected immunosuppressive factor, intraperitoneal administration): restored the capacities | capacities to produce antibody against SRBC ([3]; normal mice): did not enhance | ^3H-thymidine uptake (cpm) ([4]; MLC with immunosuppressive factor (3 µl) + swainsonine 0.00002 µg/well): 10,449 cpm | ^3H-thymidine uptake (cpm) ([4]; MLC with immunosuppressive factor (3 µl) + swainsonine 0.0002 µg/well): 13,015 cpm | ^3H-thymidine uptake (cpm) ([4]; MLC with immunosuppressive factor (3 µl) + swainsonine 0.002 µg/well): 24,951 cpm | ^3H-thymidine uptake (cpm) ([4]; MLC with immunosuppressive factor (3 µl) + swainsonine 0.02 µg/well): 31,595 cpm | ^3H-thymidine uptake (cpm) ([4]; MLC with immunosuppressive factor (3 µl) + swainsonine 0.2 µg/well): 27,942 cpm | ^3H-thymidine uptake (cpm) ([4]; MLC with immunosuppressive factor (3 µl) + swainsonine 2 µg/well): 23,928 cpm | ^3H-thymidine uptake (cpm) ([4]; MLC with immunosuppressive factor (5 µl) + swainsonine 0.00002 µg/well): 3,737 cpm | ^3H-thymidine uptake (cpm) ([4]; MLC with immunosuppressive factor (5 µl) + swainsonine 0.0002 µg/well): 6,377 cpm | ^3H-thymidine uptake (cpm) ([4]; MLC with immunosuppressive factor (5 µl) + swainsonine 0.002 µg/well): 10,918 cpm | ^3H-thymidine uptake (cpm) ([4]; MLC with immunosuppressive factor (5 µl) + swainsonine 0.02 µg/well): 7,679 cpm | ^3H-thymidine uptake (cpm) ([4]; MLC with immunosuppressive factor (5 µl) + swainsonine 0.2 µg/well): 7,928 cpm | ^3H-thymidine uptake (cpm) ([4]; MLC with immunosuppressive factor (5 µl) + swainsonine 2 µg/well): 6,709 cpm | ^3H-thymidine uptake (cpm) ([4]; MLC with swainsonine 0.00002 µg/well, no immunosuppressive factor): 20,653 cpm | ^3H-thymidine uptake (cpm) ([4]; MLC with swainsonine 0.0002 µg/well, no immunosuppressive factor): 21,823 cpm | ^3H-thymidine uptake (cpm) ([4]; MLC with swainsonine 0.002 µg/well, no immunosuppressive factor): 29,688 cpm | ^3H-thymidine uptake (cpm) ([4]; MLC with swainsonine 0.02 µg/well, no immunosuppressive factor): 33,686 cpm | ^3H-thymidine uptake (cpm) ([4]; MLC with swainsonine 0.2 µg/well, no immunosuppressive factor): 38,077 cpm | ^3H-thymidine uptake (cpm) ([4]; MLC with swainsonine 2 µg/well, no immunosuppressive factor): 33,104 cpm | inhibitory activity of immunosuppressive factor in MLC ([4]; immunosuppressive factor incubated with swainsonine): the inhibitory activity was removed | MLC-stimulated spleen cells ^3H-thymidine uptake ([4]; swainsonine added to MLC): enhanced remarkably | PFC-SRBC/spleen (average number of 5 mice/group) [5, 7]: 21.66 x 10^4 PFC-SRBC/spleen | PFC-SRBC/spleen (average number of 5 mice/group) ([5]; Mitomycin C (1.0 mg/kg) + Swainsonine 3.7 mg/kg i.p.): 21.31 x 10^4 PFC-SRBC/spleen | PFC-SRBC/spleen (average number of 5 mice/group) ([5]; Mitomycin C (1.0 mg/kg) + Swainsonine 11 mg/kg i.p.): 20.90 x 10^4 PFC-SRBC/spleen | PFC-SRBC/spleen (average number of 5 mice/group) ([5]; Mitomycin C (1.0 mg/kg) + Swainsonine 33 mg/kg i.p.): 20.90 x 10^4 PFC-SRBC/spleen | PFC-SRBC/spleen (average number of 5 mice/group) ([5]; Mitomycin C (1.0 mg/kg) + Swainsonine 100 mg/kg i.p.): 21.79 x 10^4 PFC-SRBC/spleen | capacities to produce antibody against SRBC ([5]; mice injected mitomycin C): restored the capacities | Thymus weight (thymus; sample 5 mg/kg subcutaneously twice per day): 73.0 mg/mouse | Thymus weight (thymus; sample 15 mg/kg subcutaneously twice per day): 78.8 mg/mouse | Thymus weight (thymus; sample 50 mg/kg subcutaneously twice per day): 72.4 mg/mouse | atrophy of thymus induced by dexamethasone (thymus; mice): prevents | growth of transplantable tumors [6]: inhibits growth
